The subject of test [1] is MCAK motor domain (His-M, His-NM). The test is described as follows: Resin-based (glutathione agarose) GST pull-down binding assay. As to conditions: GST-CT constructs on glutathione agarose beads; purified His-M / His-NM; Coomassie-stained gel. Also noted: species or system human. The text has this: Kinesin-1 is regulated through an auto-inhibitory mechanism whereby one C-terminal tail binds at the interface of the two motors, such that it creates a second point of attachment in addition to the coiled coil region. This limits the head movement of one kinesin with respect to the other ([Stock et al., 1999]; [Hackney and Stock, 2000]; [Kaan et al., 2011]). We sought to test whether the C-terminal tail domain of MCAK, which has been proposed to regulate MCAK activity ([Moore and Wordeman, 2004]), was sufficient to interact with the motor domain. To do this, we expressed the N-terminal and motor region (residues 1–583, termed NM) or the motor region of MCAK along with the neck linker region (residues 181–583, termed M) as His-tagged proteins, and the C-terminal MCAK tail (residues 700–725, termed CT domain) as a GST fusion protein ([Moore and Wordeman, 2004]; [Hertzer et al., 2006]) (Figure 1A). […] We cannot however exclude a very tight interaction between two CT domains. […] Together, these experiments reveal that the MCAK CT domain interacts with its catalytic domain in solution.
Figure 4. Sequence requirement for the formation of a motor-CT tail complex. (A) Sequence alignment of the conserved CT domain of MCAK for various species alongside the Drosophila kinesin-13 Klp10A and human Kif2a. The conserved residues are highlighted in red. The three amino acids that are critical for binding to the motor domain are marked with a green star. (B) Sequence alignment of the C terminus of human Kif2a, Kif2b, and MCAK/Kif2c. Amino acid numbering is relative to the Kif2a sequence. The MCAK CT domain binding to the motor domain is boxed in green. The sequences were aligned using the program T-coffee (EBI) and formatted with ESPRIPT ([Gouet et al., 1999]). (C) Coomassie-stained gel showing a resin-based binding assay using glutathione agarose beads for purified His-M, binding to the GST-CT and GST-CT point mutants. (D) Size-exclusion chromatography elution profile of the motor domain alone (red dashes), motor incubated with the CT, CTS715E, CTE711A, E712A domains (cyan, green dashes, and purple, respectively). Bottom, coomassie-stained gel showing the size-exclusion chromatography elution of the motor incubated with the CTS715E and CTE711A, E712A domains (green and purple, respectively). DOI: http://dx.doi.org/10.7554/eLife.06421.008
Protein expression was induced by addition of 0.5 mM IPTG to BL21(DE3) Codon plus cells transformed with respective constructs at OD600 of 0.7–0.8 for 16 hr at 18°C. Cells were lysed by sonication in lysis buffer (50 mM Hepes, pH 7.4, 200 mM NaCl, 1 mM MgCl2, 1 mM PMSF, 1 mg/ml DNaseI, 2 mg/ml lysozyme, 10 mM Imidazole) and clarified at 20,000 rpm for 1 hr at 4°C. His-tagged and GST-tagged proteins were subsequently purified using Ni-NTA–agarose beads and glutathione-sepharose beads, respectively (GE Healthcare Life Sciences, UK)) according to the manufacturer's guidelines. MCAK constructs containing the motor domain were eluted with elution buffer (50 mM Hepes, pH 7.4, 200 mM NaCl, 1 mM MgCl2, 1 mM ATP, and 300 mM imidazole). Cleavage of the GST tag was performed using the GST-3C protease overnight at 4°C. Proteins were further purified using gel filtration chromatography pre-equilibrated in gel filtration buffer (For full-length MCAK: 100 mM HEPES, pH 7.3, 200 mM NaCl, 200 mM KCl, 1 mM DTT, 1 mM MgCl2, 1 mM Na-EGTA, 1 mM ATP; for the motor domain constructs: 50 mM HEPES, pH 7.2, 150 mM NaCl, 1 mM DTT, 1 mM MgCl2, 1 mM Na-EGTA, 1 mM ATP; for CT domain constructs: 50 mM HEPES, pH 7.2, 150 mM NaCl, 1 mM DTT, 1 mM MgCl2, 1 mM Na-EGTA). Analytical gel filtration chromatography was performed using either a Superdex 75 or a Superose 6 10/300 GL column (GE Healthcare, UK). To purify the CT domain alone, we cleaved GST and CT after gel filtration and a concentration step, and performed a glutathione affinity-purification third step to remove the GST and collect the CT domain. […]

Test [2] deals with T1, MCAK motor domain (Homo sapiens, UniProt Q99661).
T1 construct: His-MCAK (183–583, M) and His-MCAK (1–583, NM) were subcloned in pET3aTr vector; made in house; host or cells: E. coli BL21(DE3) Codon plus
T1 sequence (Q99661 183-583): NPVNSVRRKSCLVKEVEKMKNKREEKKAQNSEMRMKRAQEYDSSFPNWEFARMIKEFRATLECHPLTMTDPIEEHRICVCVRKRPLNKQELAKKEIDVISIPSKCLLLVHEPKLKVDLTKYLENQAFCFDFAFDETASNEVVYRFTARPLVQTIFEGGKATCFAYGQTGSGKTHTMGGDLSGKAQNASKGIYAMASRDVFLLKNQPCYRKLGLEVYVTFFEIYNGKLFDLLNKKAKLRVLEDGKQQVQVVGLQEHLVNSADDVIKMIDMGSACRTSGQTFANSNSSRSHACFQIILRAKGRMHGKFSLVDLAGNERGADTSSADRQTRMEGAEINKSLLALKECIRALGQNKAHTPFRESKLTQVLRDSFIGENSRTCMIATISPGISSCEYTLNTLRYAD
The test is described as follows: Analytical size-exclusion chromatography (motor-CT complex formation). It is filed as binding. As to conditions: Superdex 75 or Superose 6 10/300 GL; Coomassie-stained gel of fractions. The text has this:
Full-length MCAK is a dimer in solution ([Maney et al., 2001]). Therefore, we sought to test whether the CT domain interacts with one or two motor domains. To define the stoichiometry of this interaction, we subjected the complex to analytical size-exclusion chromatography. The motor domain alone behaves as a monomer and eluted with an apparent size of ∼45 kDa. […] Using SDS-PAGE analysis, we confirmed that the shift to a larger complex was due to the interaction of the motor domain with the CT domain (Figure 1C, bottom). […] The predicted masses for complexes of one and two CT domains bound to two motor domains are ∼94.2 and 97.7 kDa, respectively. […] Since the CT domain is unlikely to dimerize alone (Figure 1B), we conclude that the MCAK CT domain induces the dimerization of the motor domains cooperatively.
Protein expression was induced by addition of 0.5 mM IPTG to BL21(DE3) Codon plus cells transformed with respective constructs at OD600 of 0.7–0.8 for 16 hr at 18°C. Cells were lysed by sonication in lysis buffer (50 mM Hepes, pH 7.4, 200 mM NaCl, 1 mM MgCl2, 1 mM PMSF, 1 mg/ml DNaseI, 2 mg/ml lysozyme, 10 mM Imidazole) and clarified at 20,000 rpm for 1 hr at 4°C. His-tagged and GST-tagged proteins were subsequently purified using Ni-NTA–agarose beads and glutathione-sepharose beads, respectively (GE Healthcare Life Sciences, UK)) according to the manufacturer's guidelines. MCAK constructs containing the motor domain were eluted with elution buffer (50 mM Hepes, pH 7.4, 200 mM NaCl, 1 mM MgCl2, 1 mM ATP, and 300 mM imidazole). Cleavage of the GST tag was performed using the GST-3C protease overnight at 4°C. […] Protein concentrations were determined with a combination of Bradford protein assays and densitometry of Coomassie-stained gels relative to a BSA standard. […]
In general terms: In gel filtration, larger molecules generally elute earlier.

In test [3] the test system is taxol-stabilized microtubules. Briefly: Microtubule cosedimentation assay, untreated microtubules. As to conditions: 100 nM full-length MCAKS715E, 2 μM taxol-stabilized microtubules, increasing free CT or CTS715E; repeated three times. It is filed as binding. Here is the method: Full-length MCAK complex was diluted in S buffer (50 mM NaCl, 20 mM Hepes pH 7.0) to 50 nM, in absence of nucleotide to prevent MCAK-dependent microtubule depolymerisation. To assemble an MCAK motor-CT domain complex, 50 nM of the motor domain and 100 nM of the CT domain were used. Microtubule binding assays were performed as described ([Cheeseman et al., 2006]) using equal volumes of taxol-stabilized microtubules in BRB80 and MCAK in S buffer. MCAK was quantified using anti-MCAK antibody against the C terminus of MCAK (709[…]720), generated by GL Biochem (Shangai) Ltd (China) or anti-His antibody to probe for the motor domain alone (GE Healthcare Lifesciences, UK). The data from at least three independent experiments were fitted to a modified Hill equation to determine the apparent Kd.

The test system of test [4] is MCAK motor domain (Cys287). The test is described as follows: Covalent (disulphide) attachment of the CT domain to the motor domain. It counts as binding, human. Here is the method: The GST-CTE712C and CTE712C domains were cross-linked to the motor domain by incubating them with the motor domain in a buffer containing 100 mM HEPES, pH 7.4, 150 mM NaCl but lacking DTT for 1 hr at 4°C. As a negative control the motor domain and the CTE712C domain were incubated in the identical buffer, supplemented with 5 mM DTT.

“Also recorded” adds a separate entry of the source. Ends that are not written are not given here.

Consider “GST-CT: C-terminal MCAK tail (residues 700–725) as a GST fusion protein (VIKALRLAMQLEEQASRQISSKKRPQ; also: GST fusion partner not in chain)”, for which the “binding to the motor domain of MCAK” value in test [1] is “bound to both the NM and M domains of MCAK as a stable complex; also recorded: bound to the motor domain”. For “CTS715E: CT domain point mutant S715E (VIKALRLAMQLEEQAERQISSKKRPQ; left off: GST, end not stated, cleaved)”, the “binding to / co-migration with motor domain by gel filtration” value in test [2] is given as “did not co-migrate”. Further, the “effect of free CT domain on MCAKS715E binding to microtubules” value in test [3] is given as “did not interfere with MCAKS715E binding to microtubules”.

Turning to “CTR716A: CT domain point mutant R716A (VIKALRLAMQLEEQASAQISSKKRPQ; not fully specified)”, in test [1], the “binding to the motor domain of MCAK” value is reported as “bound robustly”.

With “CTI718A: CT domain point mutant I718A (VIKALRLAMQLEEQASRQASSKKRPQ; not fully specified)”, in test [1], the “binding to the motor domain of MCAK” value is on record as “bound robustly”.

For “GST-CTS715E: GST fusion of CT domain S715E (VIKALRLAMQLEEQAERQISSKKRPQ; also: GST fusion partner not in chain)”, the “binding to the motor domain of MCAK” value in test [1] is “did not interact with the motor domain”. For “GST-CTS715A: GST fusion of CT domain S715A (VIKALRLAMQLEEQAARQISSKKRPQ; also: GST fusion partner not in chain)”, in test [1], the “binding to the motor domain of MCAK” value is recorded as “bound to the motor domain”.

As to “GST-CTE712C: cleavable GST fusion of CTE712C domain (VIKALRLAMQLECQASRQISSKKRPQ; also: GST fusion partner not in chain)”, in test [2], the “binding to / co-migration with motor domain by gel filtration” value was “eluted as a single peak, earlier than the peak for the motor alone”. Moreover, the “efficiency of disulphide bridge formation with motor domain” value in test [4] (absence of DTT, Coomassie-stained gel) is ~50%. For the same substance, in test [4] (oxidizing conditions (without DTT), 100 mM HEPES pH 7.4, 150 mM NaCl, 1 hr at 4°C), the “formation of covalent complex with motor” value is reported as “formed a covalent complex”. Regarding “CTE711A, E712A: CT domain point mutant E711A, E712A (VIKALRLAMQLAAQASRQISSKKRPQ; not fully specified)”, in test [1], the “binding to the motor domain of MCAK” value was “no longer bound to the motor domain of MCAK”.

For the origin of these results see PMC4443670, “The C-terminal region of the motor protein MCAK controls its structure and activity through a conformational switch” (eLife, 2015).
